Measurements: US10954269B2, “Anti-inflammatory tripeptides” (Dr. August Wolff Gmbh & Co. KG Arzneimittel, priority 2013, dated 2021)

Columns and labels:
Settings in all cases: substance 10^−9M
primary human T-cells = test: Cytokine secretion on protein level in activated primary human T-cells (13-plex FACS / Luminex, supernatant); format: cell-based
How it was run: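 Primary T-cells from peripheral blood of healthy volunteers, or HaCaT cells, were activated with PMA/Ionomycin or IFN-γ for 48 h and treated with tripeptides. Supernatants were collected 48 h and 72 h after stimulation and cytokines (IL-1, IL-2, IL-6, IL-12p70, IL-17, IFN-γ, TNF-α) were measured by 13-plex FACS.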

[1] = tested on: human keratinocyte cell line (HaCaT); test: Cytokine secretion on protein level in activated human keratinocyte cell line HaCaT (13-plex FACS / Luminex, supernatant); format: cell-based
How it was run: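 Stimulus: PMA/Ionomycin or IFN-γ, 48 h; cells: HaCaT or human peripheral-blood T-cells; tripeptide treatment; readout: supernatant cytokines via 13-plex FACS or Luminex, 48–72 h post-stimulation.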

primary murine T-cells = test: Cytokine secretion on protein level in activated primary murine T-cells (13-plex FACS / Luminex, supernatant); format: cell-based, C57BL/6 mice
How it was run: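 T-cells from secondary lymphatic organs of naïve C57BL/6 mice, stimulated with PMA/Ionomycin or IFN-γ; supernatant cytokines measured by 13-plex FACS 48 h and 72 h after stimulation. In another run, PMA/Ionomycin-stimulated cells received compounds at 10^−7, 10^−9 and 10^−11 M, with IFN-γ, IL-17 and IL-10 measured by Luminex.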

[2] = primary human T-cells stimulated with IFN-γ
[3] = primary human T-cells stimulated with PBS
[4] = primary human T-cells stimulated with PMA/Ionomycin
[5] = HaCaT stimulated with PMA/Ionomycin
[6] = primary murine T-cells stimulated with IFN-γ
[7] = primary murine T-cells stimulated with PBS
[8] = primary murine T-cells stimulated with PMA/Ionomycin

H-(L)-Om-(L)-Pro-Aib-OH [Example 11]
IL-1 cytokine concentration (primary human T-cells; [2]): 0 pg/mL
IL-2 cytokine concentration (primary human T-cells; [2]): 212.98 pg/mL
IL-4 cytokine concentration (primary human T-cells; [2]): 0 pg/mL
IL-5 cytokine concentration (primary human T-cells; [2]): 83.3 pg/mL
IL-6 cytokine concentration (primary human T-cells; [2]): 108.08 pg/mL
IL-9 cytokine concentration (primary human T-cells; [2]): 8.15 pg/mL
IL-10 cytokine concentration (primary human T-cells; [2]): 50.11 pg/mL
IL-12p70 cytokine concentration (primary human T-cells; [2]): 0 pg/mL
IL-13 cytokine concentration (primary human T-cells; [2]): 180.41 pg/mL
IL-17 cytokine concentration (primary human T-cells; [2]): 0 pg/mL
IL-22 cytokine concentration (primary human T-cells; [2]): 0 pg/mL
TNF-α cytokine concentration (primary human T-cells; [2]): 52.55 pg/mL
IL-1 cytokine concentration (primary human T-cells; [3]): 0 pg/mL
IL-2 cytokine concentration (primary human T-cells; [3]): 0 pg/mL
IL-4 cytokine concentration (primary human T-cells; [3]): 121.69 pg/mL
IL-5 cytokine concentration (primary human T-cells; [3]): 0 pg/mL
IL-6 cytokine concentration (primary human T-cells; [3]): 172.14 pg/mL
IL-9 cytokine concentration (primary human T-cells; [3]): 10.84 pg/mL
IL-10 cytokine concentration (primary human T-cells; [3]): 0 pg/mL
IL-12p70 cytokine concentration (primary human T-cells; [3]): 0 pg/mL
IL-13 cytokine concentration (primary human T-cells; [3]): 187.86 pg/mL
IL-17 cytokine concentration (primary human T-cells; [3]): 0 pg/mL
IL-22 cytokine concentration (primary human T-cells; [3]): 0 pg/mL
INF-α cytokine concentration (primary human T-cells; [3]): 505.68 pg/mL
TNF-α cytokine concentration (primary human T-cells; [3]): 52.55 pg/mL
IL-1 cytokine concentration (primary human T-cells; [4]): 677.32 pg/mL
IL-2 cytokine concentration (primary human T-cells; [4]): 3920.52 pg/mL
IL-4 cytokine concentration (primary human T-cells; [4]): 112.94 pg/mL
IL-5 cytokine concentration (primary human T-cells; [4]): 525.15 pg/mL
IL-6 cytokine concentration (primary human T-cells; [4]): 1474.06 pg/mL
IL-9 cytokine concentration (primary human T-cells; [4]): 380.3 pg/mL
IL-10 cytokine concentration (primary human T-cells; [4]): 563.89 pg/mL
IL-12p70 cytokine concentration (primary human T-cells; [4]): 0 pg/mL
IL-13 cytokine concentration (primary human T-cells; [4]): 1258.74 pg/mL
IL-17 cytokine concentration (primary human T-cells; [4]): 3306.09 pg/mL
IL-22 cytokine concentration (primary human T-cells; [4]): 0 pg/mL
INF-α cytokine concentration (primary human T-cells; [4]): 9554.27 pg/mL
TNF-α cytokine concentration (primary human T-cells; [4]): 2209.22 pg/mL
IL-1 cytokine concentration ([1]; HaCaT stimulated with IFN-γ): 31.54 pg/mL
IL-2 cytokine concentration ([1]; HaCaT stimulated with IFN-γ): 0 pg/mL
IL-4 cytokine concentration ([1]; HaCaT stimulated with IFN-γ): 0 pg/mL
IL-5 cytokine concentration ([1]; HaCaT stimulated with IFN-γ): 0 pg/mL
IL-6 cytokine concentration ([1]; HaCaT stimulated with IFN-γ): 265.29 pg/mL
IL-9 cytokine concentration ([1]; HaCaT stimulated with IFN-γ): 0 pg/mL
IL-10 cytokine concentration ([1]; HaCaT stimulated with IFN-γ): 0 pg/mL
IL-12p70 cytokine concentration ([1]; HaCaT stimulated with IFN-γ): 0 pg/mL
IL-13 cytokine concentration ([1]; HaCaT stimulated with IFN-γ): 989.21 pg/mL
IL-17 cytokine concentration ([1]; HaCaT stimulated with IFN-γ): 0 pg/mL
IL-22 cytokine concentration ([1]; HaCaT stimulated with IFN-γ): 0 pg/mL
TNF-α cytokine concentration ([1]; HaCaT stimulated with IFN-γ): 0 pg/mL
IFN-γ cytokine concentration ([1]; HaCaT stimulated with PBS): 0 pg/mL
IL-1 cytokine concentration ([1]; HaCaT stimulated with PBS): 0 pg/mL
IL-2 cytokine concentration ([1]; HaCaT stimulated with PBS): 0 pg/mL
IL-4 cytokine concentration ([1]; HaCaT stimulated with PBS): 99.64 pg/mL
IL-5 cytokine concentration ([1]; HaCaT stimulated with PBS): 0 pg/mL
IL-6 cytokine concentration ([1]; HaCaT stimulated with PBS): 42.94 pg/mL
IL-9 cytokine concentration ([1]; HaCaT stimulated with PBS): 1.97 pg/mL
IL-10 cytokine concentration ([1]; HaCaT stimulated with PBS): 43.56 pg/mL
IL-12p70 cytokine concentration ([1]; HaCaT stimulated with PBS): 0 pg/mL
IL-13 cytokine concentration ([1]; HaCaT stimulated with PBS): 0 pg/mL
IL-17 cytokine concentration ([1]; HaCaT stimulated with PBS): 0 pg/mL
IL-22 cytokine concentration ([1]; HaCaT stimulated with PBS): 0 pg/mL
TNF-α cytokine concentration ([1]; HaCaT stimulated with PBS): 0 pg/mL
IFN-γ cytokine concentration [1, 5]: 57.58 pg/mL
IL-1 cytokine concentration [1, 5]: 0 pg/mL
IL-2 cytokine concentration [1, 5]: 19.32 pg/mL
IL-4 cytokine concentration [1, 5]: 0 pg/mL
IL-5 cytokine concentration [1, 5]: 0 pg/mL
IL-6 cytokine concentration [1, 5]: 207.76 pg/mL
IL-9 cytokine concentration [1, 5]: 0 pg/mL
IL-10 cytokine concentration [1, 5]: 87.41 pg/mL
IL-12p70 cytokine concentration [1, 5]: 0 pg/mL
IL-13 cytokine concentration [1, 5]: 0 pg/mL
IL-17 cytokine concentration [1, 5]: 0 pg/mL
IL-22 cytokine concentration [1, 5]: 0 pg/mL
TNF-α cytokine concentration [1, 5]: 0 pg/mL
IL-1 cytokine concentration (primary murine T-cells; [6]): 100.08 pg/mL
IL-2 cytokine concentration (primary murine T-cells; [6]): 208.9 pg/mL
IL-4 cytokine concentration (primary murine T-cells; [6]): 53.65 pg/mL
IL-5 cytokine concentration (primary murine T-cells; [6]): 531.87 pg/mL
IL-6 cytokine concentration (primary murine T-cells; [6]): 193.06 pg/mL
IL-10 cytokine concentration (primary murine T-cells; [6]): 1383.43 pg/mL
IL-13 cytokine concentration (primary murine T-cells; [6]): 0 pg/mL
IL-17 cytokine concentration (primary murine T-cells; [6]): 39.84 pg/mL
IL-21 cytokine concentration (primary murine T-cells; [6]): 263.02 pg/mL
IL-22 cytokine concentration (primary murine T-cells; [6]): 31.59 pg/mL
IL-27 cytokine concentration (primary murine T-cells; [6]): 42.99 pg/mL
TNF-α cytokine concentration (primary murine T-cells; [6]): 19.71 pg/mL
IFN-γ cytokine concentration (primary murine T-cells; [7]): 8321.6 pg/mL
IL-1 cytokine concentration (primary murine T-cells; [7]): 75.71 pg/mL
IL-2 cytokine concentration (primary murine T-cells; [7]): 204.62 pg/mL
IL-4 cytokine concentration (primary murine T-cells; [7]): 0 pg/mL
IL-5 cytokine concentration (primary murine T-cells; [7]): 459.03 pg/mL
IL-6 cytokine concentration (primary murine T-cells; [7]): 172.33 pg/mL
IL-10 cytokine concentration (primary murine T-cells; [7]): 905.76 pg/mL
IL-13 cytokine concentration (primary murine T-cells; [7]): 0 pg/mL
IL-17 cytokine concentration (primary murine T-cells; [7]): 0 pg/mL
IL-21 cytokine concentration (primary murine T-cells; [7]): 0 pg/mL
IL-22 cytokine concentration (primary murine T-cells; [7]): 66.43 pg/mL
IL-27 cytokine concentration (primary murine T-cells; [7]): 141.82 pg/mL
TNF-α cytokine concentration (primary murine T-cells; [7]): 0 pg/mL
IFN-γ cytokine concentration (primary murine T-cells; [8]): 2756.75 pg/mL
IL-1 cytokine concentration (primary murine T-cells; [8]): 178.78 pg/mL
IL-2 cytokine concentration (primary murine T-cells; [8]): 261.53 pg/mL
IL-4 cytokine concentration (primary murine T-cells; [8]): 117.11 pg/mL
IL-5 cytokine concentration (primary murine T-cells; [8]): 513.39 pg/mL
IL-6 cytokine concentration (primary murine T-cells; [8]): 333.86 pg/mL
IL-10 cytokine concentration (primary murine T-cells; [8]): 1302.16 pg/mL
IL-13 cytokine concentration (primary murine T-cells; [8]): 0 pg/mL
IL-17 cytokine concentration (primary murine T-cells; [8]): 244.88 pg/mL
IL-21 cytokine concentration (primary murine T-cells; [8]): 0 pg/mL
IL-22 cytokine concentration (primary murine T-cells; [8]): 94.31 pg/mL
IL-27 cytokine concentration (primary murine T-cells; [8]): 99.05 pg/mL
TNF-α cytokine concentration (primary murine T-cells; [8]): 86.61 pg/mL
